Laboratory results: paper PMC8192908 (Scientific Reports, 2021)
“And” between values parts separate entries of the source, which are not always exact repeats. Equal entries are not always repeated.

Key:
[1] = molecular target: T1, PDE10A (Homo sapiens, UniProt Q9Y233); assay: ITC binding of PTX to the catalytic domain of PDE10A
T1 construct: Catalytic domain of each protein was cloned between BamHI and XhoI restriction sites in; 6xHis-SUMO (N, cleaved yes); made in house; host or cells: E. coli Rosetta 2 (DE3)
T1 sequence (Q9Y233 718-1035 limits assumed): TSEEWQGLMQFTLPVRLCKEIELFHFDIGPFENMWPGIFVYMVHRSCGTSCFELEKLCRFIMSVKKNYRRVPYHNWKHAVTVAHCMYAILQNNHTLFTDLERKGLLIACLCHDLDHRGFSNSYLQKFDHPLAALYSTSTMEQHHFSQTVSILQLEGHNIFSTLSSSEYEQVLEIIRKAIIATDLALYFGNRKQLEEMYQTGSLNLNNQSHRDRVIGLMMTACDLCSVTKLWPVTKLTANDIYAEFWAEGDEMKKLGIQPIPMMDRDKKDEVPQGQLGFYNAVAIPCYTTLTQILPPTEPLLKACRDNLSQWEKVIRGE
Text: Supplementary Materials and Methods
Cloning, expression and purification of catalytic domains of PDE4A, […]
The full length human PDE4A (1005 bp), PDE4D (981 bp) and PDE10A (957 bp) cDNAs, cloned in pET28a(+) expression vector, were purchased from Biomatik, Canada.
Catalytic domain of each protein was cloned between BamHI and XhoI restriction sites in 6x-His-SUMO-tagged bacterial expression vector. The catalytic domain constructs of PDE4A, PDE4D and PDE10A were transformed in E. coli Rosetta 2 (DE3) competent cells for expression. After growing the transformed cells at 37 °C, till the OD 600nm reached 0.5-0.7, the culture containing constructs of PDE4A and PDE4D were induced with 0.1 mM IPTG and the cultures were incubated at 15 °C for 16-18 h, whereas those with PDE10A constructs were induced with 0.5 mM at incubated for 35 -40 h followed by cell harvesting. Harvested cells were suspended in lysis buffer (500 mM NaCl, 50 mM Tris - Cl pH 8.0, 10 mM Imidazole, 3 mM β-mercaptoethanol) and lysed by sonication (Qsonica). The lysates were cleared by centrifugation at 20,000g for 1h and supernatant was passed through Ni-NTA affinity column (His-Trap, GE Healthcare). Eluted proteins were subjected to salt exchange with a buffer containing 100 mM NaCl, 50 mM Tris-Cl pH 8.0, 3 mM β-mercaptoethanol. The collected proteins were further purified using ion - exchange chromatography (Q column, Hi-Trap, GE Healthcare) followed by overnight treatment with ULP1 at 4 °C to cleave 6xHis-SUMO tag. The tag was separated from proteins by a subsequent Ni-NTA purification. The proteins were further purified on size exclusion 16/600 200 pg column (GE Healthcare) pre-equilibrated with a buffer (100 mM […]
NaCl, 50 mM Tris pH 8.0, 5% Glycerol, 3 mM β-mercaptoethanol). After purifying with a gel filtration column, purity was determined on 12% SDS -PAGE and all three proteins were more than 95% pure (Supplementary Figure S10). Purified proteins were concentrated to 20mg/ml, flash cooled with liquid nitrogen and stored at -80°C.
Isothermal titration calorimetry (ITC) binding studies
The equilibrium molar dissociation constant (Kd), stoichiometry (N) and […]
of PDE4A, PDE4D and PDE10A were determined at 25°C, using Affinity ITC (TA instruments). Protein and ligand solutions for titration were prepared in the same buffer.
The reference cell was filled with a distilled water and the sample cell was filled with 350 […]
μL of either PDE4A or PDE4D or PDE10A (75-500 µM). […]
sequentially injected in 2 μL per injection (for a total 20 injections), at a regular interval of 120-150s, while stirring at 125 rpm. The ITC generated data were processed using NanoAnalyze software (TA Instruments). The ITC data was deconvoluted with the “independent” curve fitting model using a nonlinear least-squares algorithm. […]

[2] = test system: human lymphocytes cells; conditions: cited from earlier work

SMILES	change in enthalpy (ΔH) [1]	change in entropy (ΔS) [1]	stoichiometry (N) [1]	Kd ([1]; 25°C, read-out: molar dissociation constant (Kd))	genotoxic effect on human lymphocytes cells in vitro [2]
CC(=O)CCCCn1c(=O)c2c(ncn2C)n(C)c1=O [PTX, pentoxifylline]	~ -8.25±0.04 kcal/mol	~ -7.8 cal/mol.K	~ 1.03±0.04	44 µM and ~44 µM	
COc1ccc2cc(/C=C/C(=O)CCCCn3c(=O)c4c(ncn4C)n(C)c3=O)ccc2c1 [PTXm-1]					significantly lower genotoxic effect
